Columns and labels:
Conditions in all cases: Table 35
MLKL (full length) = MLKL (full length) (Homo sapiens (Human), UniProt Q8NB16); assay: KINOMEscan binding assay, MLKL (full length)
Procedure: (§1) Kinase assays. For most assays, kinase-tagged T7 phage strains were grown in parallel in 24-well blocks in an E. coli host derived from the BL21 strain. E. coli were grown to log-phase and infected with T7 phage from a frozen stock (multiplicity of infection=0.4) and incubated with shaking at 32° C. until lysis (90-150 minutes).
(§2) The Hill Slope was set to −1.

RIP1 = RIP1 (Homo sapiens (Human), UniProt Q13546); assay: KINOMEscan binding assay, RIP1
RIP1, sequence (Q13546 whole entry): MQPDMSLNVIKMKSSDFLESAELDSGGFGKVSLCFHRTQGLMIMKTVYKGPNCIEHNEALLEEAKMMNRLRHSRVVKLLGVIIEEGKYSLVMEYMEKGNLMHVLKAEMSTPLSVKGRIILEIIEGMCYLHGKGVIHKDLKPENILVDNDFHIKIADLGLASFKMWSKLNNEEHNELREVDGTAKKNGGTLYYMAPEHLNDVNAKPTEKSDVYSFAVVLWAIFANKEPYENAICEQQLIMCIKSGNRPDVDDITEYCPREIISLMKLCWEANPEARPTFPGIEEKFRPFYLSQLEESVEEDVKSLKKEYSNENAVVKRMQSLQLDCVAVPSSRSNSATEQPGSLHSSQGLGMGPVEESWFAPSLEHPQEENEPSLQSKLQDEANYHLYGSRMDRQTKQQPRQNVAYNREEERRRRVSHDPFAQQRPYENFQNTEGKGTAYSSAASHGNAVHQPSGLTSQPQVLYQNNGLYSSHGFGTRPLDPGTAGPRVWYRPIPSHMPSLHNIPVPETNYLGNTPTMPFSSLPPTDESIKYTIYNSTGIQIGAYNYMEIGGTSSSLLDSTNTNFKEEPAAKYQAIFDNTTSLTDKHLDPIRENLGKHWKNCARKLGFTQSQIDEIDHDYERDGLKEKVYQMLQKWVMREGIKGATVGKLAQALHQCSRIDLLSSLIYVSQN

RIP3 = RIP3 (Homo sapiens (Human), UniProt Q9Y572); assay: KINOMEscan binding assay, RIP3
RIP3, sequence (Q9Y572 whole entry): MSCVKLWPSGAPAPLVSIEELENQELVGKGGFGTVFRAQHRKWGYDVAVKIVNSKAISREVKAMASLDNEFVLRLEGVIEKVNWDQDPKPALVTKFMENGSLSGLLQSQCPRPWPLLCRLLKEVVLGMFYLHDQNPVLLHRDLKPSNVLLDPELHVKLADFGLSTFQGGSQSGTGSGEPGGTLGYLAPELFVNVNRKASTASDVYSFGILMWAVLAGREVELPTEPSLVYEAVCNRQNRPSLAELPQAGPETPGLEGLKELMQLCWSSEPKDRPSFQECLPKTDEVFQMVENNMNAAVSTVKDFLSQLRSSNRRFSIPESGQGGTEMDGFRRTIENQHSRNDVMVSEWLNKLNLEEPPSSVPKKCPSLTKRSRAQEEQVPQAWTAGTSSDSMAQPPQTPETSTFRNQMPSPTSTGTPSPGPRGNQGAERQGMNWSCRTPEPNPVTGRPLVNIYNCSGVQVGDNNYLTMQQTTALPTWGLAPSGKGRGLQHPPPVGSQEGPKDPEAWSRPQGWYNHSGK
Procedure: as §1, §2

MLKL (full length), sequence (Q8NB16 whole entry): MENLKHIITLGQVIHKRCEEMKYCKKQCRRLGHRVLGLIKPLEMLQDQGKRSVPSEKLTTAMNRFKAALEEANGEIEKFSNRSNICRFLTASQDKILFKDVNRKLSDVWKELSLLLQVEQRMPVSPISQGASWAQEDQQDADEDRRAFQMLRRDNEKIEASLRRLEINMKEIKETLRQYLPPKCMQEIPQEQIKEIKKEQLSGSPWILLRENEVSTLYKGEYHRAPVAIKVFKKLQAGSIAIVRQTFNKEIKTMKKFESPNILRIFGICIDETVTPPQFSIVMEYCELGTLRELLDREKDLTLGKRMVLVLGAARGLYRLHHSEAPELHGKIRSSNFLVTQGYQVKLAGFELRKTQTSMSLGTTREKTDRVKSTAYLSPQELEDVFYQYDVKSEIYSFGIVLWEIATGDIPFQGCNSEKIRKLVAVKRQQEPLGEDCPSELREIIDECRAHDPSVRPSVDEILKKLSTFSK

Row | Structure (SMILES) | Kd (MLKL (full length)) [µM] | Kd (RIP1) [µM] | Kd (RIP3) [µM]
1 | NC(=O)c1cccc(Nc2[nH]nc(-c3ccc(NS(=O)(=O)C(F)F)cc3)c2C(N)=O)n1 [Compound 257, 6-({4-carbamoyl-3-[4-(difluoromethanesulfonamido)phenyl]-1H-pyrazol-5-yl}amino)pyridine-2-carboxamide] | < 0.01 | > 30 | > 30
2 | N#Cc1cccc(Nc2[nH]nc(-c3ccc(NS(=O)(=O)C(F)F)cc3)c2C(N)=O)n1 [Compound 258, 5-[(6-cyanopyridin-2-yl)amino]-3-[4-(difluoromethanesulfonamido)phenyl]-1H-pyrazole-4-carboxamide] | < 0.01 | > 30 | > 30
3 | C[C@H](Oc1cc(-c2n[nH]c(Nc3cnccn3)c2C(N)=O)ccc1NS(=O)(=O)CC(F)(F)F)c1ccc(Cl)cc1 [Compound 259, 3-{3-[(1S)-1-(4-chlorophenyl)ethoxy]-4-(2,2,2-trifluoroethane-sulfonamido)phenyl}-5-[(pyrazin-2-yl)amino]-1H-pyrazole-4-carboxamide] | < 0.01 | > 30 | > 30
4 | C[C@H](Oc1cc(-c2n[nH]c(Nc3ccccn3)c2C(N)=O)ccc1NS(=O)(=O)C(F)F)c1ccc(F)cc1 [Compound 260] | < 0.01 | > 30 | > 30
5 | CCS(=O)(=O)Nc1ccc(-c2n[nH]c(Nc3cnccn3)c2C(N)=O)cc1OCc1ccccn1 [Compound 261, 3-{4-ethanesulfonamido-3-[(pyridin-2-yl)methoxy]phenyl}-5-[(pyrazin-2-yl)amino]-1H-pyrazole-4-carboxamide] | < 0.01 | > 30 | > 30
6 | NC(=O)c1c(-c2ccc(NS(=O)(=O)CC(F)(F)F)c(OCc3ccc(Cl)cn3)c2)n[nH]c1Nc1cnccn1 [Compound 262, 3-{3-[(5-chloropyridin-2-yl)methoxy]-4-(2,2,2-trifluoroethane-sulfonamido)phenyl}-5-[(pyrazin-2-yl)amino]-1H-pyrazole-4-carboxamide] | < 0.01 | > 30 | > 30
7 | Cc1cnc(Nc2[nH]nc(-c3ccc(NS(=O)(=O)CC(F)(F)F)c(O[C@@H](C)c4ccc(F)cc4)c3)c2C(N)=O)cn1 [Compound 264, 3-{3-[(1S)-1-(4-fluorophenyl)ethoxy]-4-(2,2,2-trifluoroethanesulfonamido)phenyl}-5-[(5-methylpyrazin-2-yl)amino]-1H-pyrazole-4-carboxamide] | < 0.01 | > 30 | > 30
8 | NC(=O)c1c(-c2ccc(NS(=O)(=O)CC(F)(F)F)c(OC(c3ccc(F)cc3)C3CCC3)c2)n[nH]c1Nc1cnccn1 (stereo not drawn) [Compound 266, 3-{3-[cyclobutyl(4-fluorophenyl)methoxy]-4-(2,2,2-trifluoroethanesulfonamido)phenyl}-5-[(pyrazin-2-yl)amino]-1H-pyrazole-4-carboxamide] | < 0.01 | > 30 | > 30
9 | C[C@H](Oc1cc(-c2n[nH]c(Nc3cnccn3)c2C(N)=O)ccc1NS(=O)(=O)CC(F)(F)F)c1ccccn1 [Compound 267, 5-[(pyrazin-2-yl)amino]-3-{3-[(1S)-1-(pyridin-2-yl)ethoxy]-4-(2,2,2-trifluoroethanesulfonamido)phenyl]-1H-pyrazole-4-carboxamide] | < 0.01 | > 30 | > 30
10 | NC(=O)c1c(-c2ccc(NS(=O)(=O)CC(F)(F)F)cc2)n[nH]c1Nc1ccccn1 [Compound 268, 5-[(pyridin-2-yl)amino]-3-[4-(2,2,2-trifluoroethanesulfonamido)phenyl]-1H-pyrazole-4-carboxamide] | < 0.01 | > 30 | > 30
11 | NC(=O)c1c(-c2ccc(NS(=O)(=O)CC(F)(F)F)c(OCc3ccc(Cl)cc3)c2)n[nH]c1Nc1ccccn1 [Compound 269, 3-{3-[(4-chlorophenyl)methoxy]-4-(2,2,2-trifluoroethanesulfonamido)phenyl}-5-[(pyridin-2-yl)amino]-1H-pyrazole-4-carboxamide] | < 0.01 | > 30 | > 30
12 | Cc1nn(C)cc1Nc1[nH]nc(-c2ccc(NS(=O)(=O)C(F)F)c(O[C@@H](C)c3ccc(F)cc3)c2)c1C(N)=O [Compound 270, (S)-3-(4-((difluoromethyl)sulfonamido)-3-(1-(4-fluorophenyl)ethoxy)phenyl)-5-((1,3-dimethyl-1H-pyrazol-4-yl)amino)-1H-pyrazole-4-carboxamide] | < 0.01 | > 30 | > 30
13 | C[C@@H](Oc1cc(-c2n[nH]c(Nc3cnccn3)c2C(N)=O)ccc1NS(=O)(=O)C(F)F)c1ccc(F)cc1 [Compound 271, (R)-3-(4-((difluoro-methyl)sulfon-amido)-3-(1-(4-fluorophenyl)ethoxy)phenyl)-5-(pyrazin-2-ylamino)-1H-pyrazole-4-carboxamide] | < 0.01 | > 30 | > 30
14 | CCc1cc(Nc2[nH]nc(-c3ccc(NS(=O)(=O)C(F)F)c(O[C@@H](C)c4ccc(F)cc4)c3)c2C(N)=O)no1 [Compound 274, (S)-3-(4-((difluoromethyl)sulfonamido)-3-(1-(4-fluorophenyl)ethoxy)phenyl)-5-((5-ethylisoxazol-3-yl)amino)-1H-pyrazole-4-carboxamide] | < 0.01 | > 30 | > 30
15 | NC(=O)c1c(-c2ccc(NS(=O)(=O)C(F)F)c(OCc3nccs3)c2)n[nH]c1Nc1cnccn1 [Compound 275, 3-(4-((difluoro-methyl)sulfon-amido)-3-(thiazol-2-ylmethoxy)phenyl)-5-(pyrazin-2-ylamino)-1H-pyrazole-4-carboxamide] | < 0.01 | > 30 | > 30
16 | C[C@H](Oc1cc(-c2n[nH]c(Nc3cc(C4(C)CC4)on3)c2C(N)=O)ccc1NS(=O)(=O)C(F)F)c1ccc(F)cc1 [Compound 276, (S)-3-(4-((difluoromethyl)sulfonamido)-3-(1-(4-fluorophenyl)ethoxy)phenyl)-5-((5-(1-methylcyclopropyl)isoxazol-3-yl)amino)-1H-pyrazole-4-carboxamide] | < 0.01 | > 30 | > 30
17 | C[C@H](Oc1cc(-c2n[nH]c(Nc3cc(C(F)(F)F)n(C)n3)c2C(N)=O)ccc1NS(=O)(=O)C(F)F)c1ccc(F)cc1 [Compound 277, (S)-3-(4-((difluoromethyl)sulfonamido)-3-(1-(4-fluorophenyl)ethoxy)phenyl)-5-((1-methyl-5-(trifluoromethyl)-1H-pyrazol-3-yl)amino)-1H-pyrazole-4-carboxamide] | < 0.01 | > 30 | > 30
18 | C[C@H](Oc1cc(-c2n[nH]c(Nc3ccc(C4CCOCC4)cn3)c2C(N)=O)ccc1NS(=O)(=O)C(F)F)c1ccc(F)cc1 [Compound 278] | < 0.01 | > 30 | > 30
19 | C[C@H](Oc1cc(-c2n[nH]c(Nc3cc(C4CCC4)on3)c2C(N)=O)ccc1NS(=O)(=O)C(F)F)c1ccc(F)cc1 [Compound 281, (S)-5-((5-cyclobutylisoxazol-3-yl)amino)-3-(4-((difluoromethyl)sulfonamido)-3-(1-(4-fluorophenyl)ethoxy)phenyl)-1H-pyrazole-4-carboxamide] | < 0.01 | > 30 | > 30
20 | C[C@H](Oc1cc(-c2n[nH]c(Nc3cc(C(C)(C)C)on3)c2C(N)=O)ccc1NS(=O)(=O)C(F)F)c1ccc(F)cc1 [Compound 282, (S)-5-((5-(tert-butyl)isoxazol-3-yl)amino)-3-(4-((difluoromethyl)sulfonamido)-3-(1-(4-fluorophenyl)ethoxy)phenyl)-1H-pyrazole-4-carboxamide] | < 0.01 | > 30 | > 30
21 | C[C@H](Oc1cc(-c2n[nH]c(Nc3ncn(C)n3)c2C(N)=O)ccc1NS(=O)(=O)C(F)F)c1ccc(F)cc1 [Compound 283, (S)-3-(4-((difluoromethyl)sulfonamido)-3-(1-(4-fluorophenyl)ethoxy)phenyl)-5-((1-methyl-1H-1,2,4-triazol-3-yl)amino)-1H-pyrazole-4-carboxamide] | < 0.01 | > 30 | > 30
22 | Cc1nc(Nc2[nH]nc(-c3ccc(NS(=O)(=O)C(F)F)c(O[C@@H](C)c4ccc(F)cc4)c3)c2C(N)=O)sc1C [Compound 284, (S)-3-(4-((difluoromethyl)sulfonamido)-3-(1-(4-fluorophenyl)ethoxy)phenyl)-5-((4,5-dimethylthiazol-2-yl)amino)-1H-pyrazole-4-carboxamide] | < 0.01 | > 30 | > 30
23 | Cc1cn(C)nc1Nc1[nH]nc(-c2ccc(NS(=O)(=O)C(F)F)c(O[C@@H](C)c3ccc(F)cc3)c2)c1C(N)=O [Compound 286, (S)-3-(4-((difluoromethyl)sulfonamido)-3-(1-(4-fluorophenyl)ethoxy)phenyl)-5-((1,4-dimethyl-1H-pyrazol-3-yl)amino)-1H-pyrazole-4-carboxamide] | < 0.01 | > 30 | > 30
24 | C[C@H](Oc1cc(-c2n[nH]c(Nc3cc(C4CCOCC4)ccn3)c2C(N)=O)ccc1NS(=O)(=O)C(F)F)c1ccc(F)cc1 [Compound 287, (S)-3-(4-((difluoromethyl)sulfonamido)-3-(1-(4-fluorophenyl)ethoxy)phenyl)-5-((4-(tetrahydro-2H-pyran-4-yl)pyridin-2-yl)amino)-1H-pyrazole-4-carboxamide] | < 0.01 | > 30 | > 30
25 | COCC(C)(C)c1cc(Nc2[nH]nc(-c3ccc(NS(=O)(=O)C(F)F)c(O[C@@H](C)c4ccc(F)cc4)c3)c2C(N)=O)no1 [Compound 288, (S)-3-(4-((difluoromethyl)sulfonamido)-3-(1-(4-fluorophenyl)ethoxy)phenyl)-5-((5-(1-methoxy-2-methylpropan-2-yl)isoxazol-3-yl)amino)-1H-pyrazole-4-carboxamide] | < 0.01 | > 30 | > 30
